Assay results from PubChem BioAssay (NCI).
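Interpolation was linear, between the two tested concentrations surrounding the appropriate level; five concentrations were tested over 48 hours in 96-well plates. GI50: concentration for 50% inhibition of growth. TGI is the concentration that stops growth completely.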

How the values were obtained:
Test in all cases: inhibition of tumour cell growth, NCI panel, 48 h
MALME-3M melanoma = system: MALME-3M melanoma
TK-10 renal = system: TK-10 renal
M14 melanoma = system: M14 melanoma
OVCAR-8 ovarian = system: OVCAR-8 ovarian
PC-3 prostate = system: PC-3 prostate
UACC-62 melanoma = system: UACC-62 melanoma
786-0 renal = system: 786-0 renal
CCRF-CEM leukemia = system: CCRF-CEM leukemia
OVCAR-4 ovarian = system: OVCAR-4 ovarian
SW-620 colon = system: SW-620 colon
EKVX NSCLC = system: EKVX NSCLC
CAKI-1 renal = system: CAKI-1 renal
HCT-15 colon = system: HCT-15 colon
SK-MEL-28 melanoma = system: SK-MEL-28 melanoma
SK-MEL-5 melanoma = system: SK-MEL-5 melanoma
IGROV1 ovarian = system: IGROV1 ovarian
A498 renal = system: A498 renal
KM12 colon = system: KM12 colon
MOLT-4 leukemia = system: MOLT-4 leukemia
NCI-H522 lung = system: NCI-H522 lung
NCI-H23 lung = system: NCI-H23 lung
NCI-H226 lung = system: NCI-H226 lung
HCC-2998 colon = system: HCC-2998 colon
HL-60(TB) leukemia = system: HL-60(TB) leukemia
SN12C renal = system: SN12C renal
T-47D breast = system: T-47D breast
ACHN renal = system: ACHN renal
HS 578T breast = system: HS 578T breast
HOP-92 NSCLC = system: HOP-92 NSCLC
MDA-MB-435 = system: MDA-MB-435
SR leukemia = system: SR leukemia
SF-268 CNS = system: SF-268 CNS
SK-MEL-2 melanoma = system: SK-MEL-2 melanoma
OVCAR-3 ovarian = system: OVCAR-3 ovarian
HOP-62 NSCLC = system: HOP-62 NSCLC
A549 NSCLC = system: A549 NSCLC
HT29 colon = system: HT29 colon
SK-OV-3 ovarian = system: SK-OV-3 ovarian
NCI-H460 lung = system: NCI-H460 lung
HCT-116 colon = system: HCT-116 colon
MDA-MB-231 breast = system: MDA-MB-231 breast
UO-31 renal = system: UO-31 renal
SNB-19 CNS = system: SNB-19 CNS
LOX IMVI melanoma = system: LOX IMVI melanoma
SNB-75 CNS = system: SNB-75 CNS
OVCAR-5 ovarian = system: OVCAR-5 ovarian
SF-295 CNS = system: SF-295 CNS
UACC-257 melanoma = system: UACC-257 melanoma
NCI/ADR-RES ovarian = system: NCI/ADR-RES ovarian
COLO 205 colon = system: COLO 205 colon
BT-549 breast = system: BT-549 breast
MCF7 breast = system: MCF7 breast
DU-145 prostate = system: DU-145 prostate
U251 CNS = system: U251 CNS
RPMI-8226 leukemia = system: RPMI-8226 leukemia
RXF 393 renal = system: RXF 393 renal
K-562 leukemia = system: K-562 leukemia

SMILES: CC12OC(CC(O)C1O)n1c3ccccc3c3c4c(c5c6ccccc6n2c5c31)C(=O)N(CCN1CCCC1)C4=O (centres undefined)
- GI50 (MALME-3M melanoma): 1.3 µM
- TGI (MALME-3M melanoma): 8.41 µM
- GI50 (TK-10 renal): 1.21 µM
- TGI (TK-10 renal): 10.4 µM
- GI50 (M14 melanoma): 1.23 µM
- TGI (M14 melanoma): 7.64 µM
- GI50 (OVCAR-8 ovarian): 1.1 µM
- TGI (OVCAR-8 ovarian): 9.12 µM
- GI50 (PC-3 prostate): 1.79 µM
- TGI (PC-3 prostate): 9.13 µM
- GI50 (UACC-62 melanoma): 0.513 µM
- TGI (UACC-62 melanoma): 2.58 µM
- GI50 (786-0 renal): 1.29 µM
- TGI (786-0 renal): 6.36 µM
- GI50 (CCRF-CEM leukemia): 0.936 µM
- TGI (CCRF-CEM leukemia): 10.7 µM
- GI50 (OVCAR-4 ovarian): 1.88 µM
- TGI (OVCAR-4 ovarian): 12.3 µM
- GI50 (SW-620 colon): 0.31 µM
- TGI (SW-620 colon): 7.22 µM
- GI50 (EKVX NSCLC): 1.67 µM
- TGI (EKVX NSCLC): 9.64 µM
- GI50 (CAKI-1 renal): 1.41 µM
- TGI (CAKI-1 renal): 9.01 µM
- GI50 (HCT-15 colon): 1 µM
- TGI (HCT-15 colon): 6.77 µM
- GI50 (SK-MEL-28 melanoma): 2.24 µM
- TGI (SK-MEL-28 melanoma): 9.7 µM
- GI50 (SK-MEL-5 melanoma): 1.22 µM
- TGI (SK-MEL-5 melanoma): 7.12 µM
- GI50 (IGROV1 ovarian): 0.951 µM
- TGI (IGROV1 ovarian): 10.8 µM
- GI50 (A498 renal): 1.5 µM
- TGI (A498 renal): 7.5 µM
- GI50 (KM12 colon): 1.3 µM
- TGI (KM12 colon): 8.68 µM
- GI50 (MOLT-4 leukemia): 0.197 µM
- TGI (MOLT-4 leukemia): 16.5 µM
- GI50 (NCI-H522 lung): 0.606 µM
- TGI (NCI-H522 lung): 5.4 µM
- GI50 (NCI-H23 lung): 1.24 µM
- TGI (NCI-H23 lung): 7.95 µM
- GI50 (NCI-H226 lung): 1.42 µM
- TGI (NCI-H226 lung): 11.4 µM
- GI50 (HCC-2998 colon): 3.96 µM
- TGI (HCC-2998 colon): 10.8 µM
- GI50 (HL-60(TB) leukemia): 0.562 µM
- TGI (HL-60(TB) leukemia): 8.7 µM
- GI50 (SN12C renal): 0.577 µM
- TGI (SN12C renal): 6.64 µM
- GI50 (T-47D breast): 0.868 µM
- TGI (T-47D breast): 7.94 µM
- GI50 (ACHN renal): 0.336 µM
- TGI (ACHN renal): 2.34 µM
- GI50 (HS 578T breast): 3.05 µM
- TGI (HS 578T breast): 13.8 µM
- GI50 (HOP-92 NSCLC): 3.85 µM
- TGI (HOP-92 NSCLC): 10.3 µM
- GI50 (MDA-MB-435): 1.7 µM
- TGI (MDA-MB-435): 8.11 µM
- GI50 (SR leukemia): 0.149 µM
- TGI (SR leukemia): 6.08 µM
- GI50 (SF-268 CNS): 0.789 µM
- TGI (SF-268 CNS): 8.47 µM
- GI50 (SK-MEL-2 melanoma): 5.16 µM
- TGI (SK-MEL-2 melanoma): 12.9 µM
- GI50 (OVCAR-3 ovarian): 1.77 µM
- TGI (OVCAR-3 ovarian): 8.95 µM
- GI50 (HOP-62 NSCLC): 0.424 µM
- TGI (HOP-62 NSCLC): 5.71 µM
- GI50 (A549 NSCLC): 0.282 µM
- TGI (A549 NSCLC): 6.17 µM
- GI50 (HT29 colon): 0.434 µM
- TGI (HT29 colon): 7.07 µM
- GI50 (SK-OV-3 ovarian): 1.57 µM
- TGI (SK-OV-3 ovarian): 6.99 µM
- GI50 (NCI-H460 lung): 0.161 µM
- TGI (NCI-H460 lung): 1.06 µM
- GI50 (HCT-116 colon): 0.321 µM
- TGI (HCT-116 colon): 6.35 µM
- GI50 (MDA-MB-231 breast): 3.38 µM
- TGI (MDA-MB-231 breast): 11.2 µM
- GI50 (UO-31 renal): 1.5 µM
- TGI (UO-31 renal): 9.95 µM
- GI50 (SNB-19 CNS): 1.25 µM
- TGI (SNB-19 CNS): 9.29 µM
- GI50 (LOX IMVI melanoma): 0.308 µM
- TGI (LOX IMVI melanoma): 1.45 µM
- GI50 (SNB-75 CNS): 0.879 µM
- TGI (SNB-75 CNS): 6.71 µM
- GI50 (OVCAR-5 ovarian): 2.25 µM
- TGI (OVCAR-5 ovarian): 14.9 µM
- GI50 (SF-295 CNS): 0.291 µM
- TGI (SF-295 CNS): 5.96 µM
- GI50 (UACC-257 melanoma): 3.54 µM
- TGI (UACC-257 melanoma): 11.8 µM
- GI50 (NCI/ADR-RES ovarian): 6.31 µM
- TGI (NCI/ADR-RES ovarian): 14.5 µM
- GI50 (COLO 205 colon): 0.377 µM
- TGI (COLO 205 colon): 6.16 µM
- GI50 (BT-549 breast): 3.85 µM
- TGI (BT-549 breast): 11.5 µM
- GI50 (MCF7 breast): 0.199 µM
- TGI (MCF7 breast): 5.88 µM
- GI50 (DU-145 prostate): 1.06 µM
- TGI (DU-145 prostate): 5.82 µM
- GI50 (U251 CNS): 0.488 µM
- TGI (U251 CNS): 6.51 µM
- GI50 (RPMI-8226 leukemia): 1.32 µM
- TGI (RPMI-8226 leukemia): 4.43 µM
- GI50 (RXF 393 renal): 1.23 µM
- TGI (RXF 393 renal): 7.25 µM
- GI50 (K-562 leukemia): 0.68 µM
- TGI (K-562 leukemia): 19.4 µM
